Test results from patent US4468511A, “C-20- And C-23-Modified macrolide derivatives” (Eli Lilly and Company, priority 1983, dated 1984).
≈ marks a conversion by molar mass, not a printed value. Read-outs that look alike come from different tables or passages of the source.

Columns and labels:
[1] = test system: Escherichia coli EC14; assay: MIC, standard agar-dilution assay; type: cell-based; settings: agar-dilution; Escherichia coli EC14; read-out: MIC
Procedure: (§1) Certain of the derivatives are active against some gram-negative bacteria, such as Pasteurella species. The MIC's in Table II were determined by standard agar-dilution assays. The MIC's in Table III were obtained using a conventional broth-dilution microtiter test.

[2] = test system: Escherichia coli TEM; assay: MIC, standard agar-dilution assay; type: cell-based; settings: agar-dilution; Escherichia coli TEM; read-out: MIC
Procedure: as §1

[3] = test system: Klebsiella pneumoniae KAE; assay: MIC, standard agar-dilution assay; type: cell-based; settings: agar-dilution; Klebsiella pneumoniae KAE; read-out: MIC
Procedure: as §1

[4] = test system: Klebsiella pneumoniae X26; assay: MIC, standard agar-dilution assay; type: cell-based
Procedure: as §1

[5] = test system: Staphylococcus aureus V41; assay: MIC, standard agar-dilution assay; type: cell-based
Procedure: as §1

[6] = test system: Staphylococcus aureus X1.1; assay: MIC, standard agar-dilution assay; type: cell-based
Procedure: as §1

[7] = test system: Streptococcus Group D X66; assay: MIC, standard agar-dilution assay; type: cell-based
Procedure: as §1

[8] = test system: Streptococcus pneumoniae Park I; assay: MIC, standard agar-dilution assay; type: cell-based
Procedure: as §1

[9] = test system: Streptococcus pyogenes 9960; assay: MIC, standard agar-dilution assay; type: cell-based
Procedure: as §1

[10] = test system: Streptococcus pyogenes C203; assay: MIC, standard agar-dilution assay; type: cell-based
Procedure: as §1

[11] = test system: Haemophilus influenzae C.L.; assay: MIC, standard agar-dilution assay; type: cell-based
Procedure: (§2) The MIC's in Table II were determined by standard agar-dilution assays. The MIC's in Table III were obtained using a conventional broth-dilution microtiter test.

[12] = test system: Staphylococcus aureus X400; assay: MIC, standard agar-dilution assay; type: cell-based
Procedure: as §2

[13] = test system: Staphylococcus epidermidis EPI2; assay: MIC, standard agar-dilution assay; type: cell-based; settings: agar-dilution; Staphylococcus epidermidis EPI2; read-out: MIC
Procedure: as §2

[14] = test system: Staphylococcus aureus S13E; assay: microbe, parasite or virus in culture; type: cell-based
Procedure: as §2

[15] = test system: Staphylococcus epidermidis EPI1; assay: microbe, parasite or virus in culture; type: cell-based
Procedure: as §2

[16] = test system: Mycoplasma gallisepticum 34159; assay: MIC, conventional broth-dilution microtiter test; type: cell-based; settings: Mycoplasmoides gallisepticum
Procedure: as §1

[17] = test system: Mycoplasma gallisepticum 41313; assay: MIC, conventional broth-dilution microtiter test; type: cell-based; settings: Mycoplasmoides gallisepticum
Procedure: as §1

[18] = test system: Mycoplasma gallisepticum; assay: MIC, conventional broth-dilution microtiter test; type: cell-based; settings: Mycoplasmoides gallisepticum
Procedure: as §1

[19] = test system: Mycoplasma hyorhinis; assay: MIC, conventional broth-dilution microtiter test; type: cell-based
Procedure: as §1

[20] = test system: Mycoplasma synoviae; assay: MIC, conventional broth-dilution microtiter test; type: cell-based; settings: Mycoplasmopsis synoviae
Procedure: as §1

[21] = test system: Pasteurella hemolytica 22C; assay: MIC, conventional broth-dilution microtiter test; type: cell-based; settings: broth-dilution microtiter; Pasteurella hemolytica 22C; read-out: MIC
Procedure: as §1

[22] = test system: Pasteurella hemolytica 23C; assay: MIC, conventional broth-dilution microtiter test; type: cell-based; settings: broth-dilution microtiter; Pasteurella hemolytica 23C; read-out: MIC
Procedure: as §1

[23] = test system: Pasteurella hemolytica 41D; assay: MIC, conventional broth-dilution microtiter test; type: cell-based; settings: broth-dilution microtiter; Pasteurella hemolytica 41D; read-out: MIC
Procedure: as §1

[24] = test system: Pasteurella multocida 17E; assay: MIC, conventional broth-dilution microtiter test; type: cell-based; settings: broth-dilution microtiter; Pasteurella multocida 17E, Bovine isolate; read-out: MIC
Procedure: as §1

[25] = test system: Pasteurella multocida 22A; assay: MIC, conventional broth-dilution microtiter test; type: cell-based; settings: broth-dilution microtiter; Pasteurella multocida 22A; read-out: MIC
Procedure: as §1

[26] = test system: Pasteurella multocida 40G; assay: MIC, conventional broth-dilution microtiter test; type: cell-based
Procedure: as §1

[27] = test system: Pasteurella multocida 60A; assay: MIC, conventional broth-dilution microtiter test; type: cell-based
Procedure: as §1

[28] = test system: Pasteurella multocida 68C; assay: MIC, conventional broth-dilution microtiter test; type: cell-based
Procedure: as §1

[29] = test system: Staphylococcus aureus; assay: MIC, conventional broth-dilution microtiter test; type: cell-based; settings: broth-dilution microtiter, read-out: MIC
Procedure: as §1

[30] = test system: Streptococcus sp. 80; assay: MIC, conventional broth-dilution microtiter test; type: cell-based
Procedure: as §1

[31] = test system: Streptococcus pyogenes C203; assay: Protection of mice experimentally infected with S. pyogenes C203; type: in vivo;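 also: two doses given 1 and 4 hours after infection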
Procedure: Some of the derivatives of this invention have shown in vivo antimicrobial activity against experimentally-induced infections in laboratory animals. When two doses of test compound were administered to mice experimentally infected with S. pyogenes C203, the activity observed was measured as an ED50 value [effective dose in mg/kg to protect 50% of the test animals: see Warren Wick, et al., J. Bacteriol. 81, 233-235 (1961)].

[32] = test system: Haemophilus influenzae 76; assay: MIC, standard agar-dilution assay; type: cell-based; settings: agar-dilution; Haemophilus influenzae 76, Ampicillin-resistant strain; read-out: MIC
Procedure: as §2

[33] = agar-dilution, Staphylococcus aureus V41, Penicillin-resistant strain, read-out: MIC
[34] = agar-dilution, Staphylococcus epidermidis EPI1, read-out: MIC
[35] = broth-dilution microtiter, Mycoplasma gallisepticum 34159, Resistant strain, read-out: MIC
[36] = broth-dilution microtiter, Mycoplasma gallisepticum 41313, Resistant strain, read-out: MIC
[37] = broth-dilution microtiter, Mycoplasma gallisepticum, read-out: MIC
[38] = broth-dilution microtiter, Mycoplasma hyorhinis, read-out: MIC
[39] = broth-dilution microtiter, Streptococcus sp. 80, read-out: MIC
[40] = agar-dilution, Klebsiella pneumoniae X26, read-out: MIC
[41] = agar-dilution, Streptococcus Group D X66, read-out: MIC
[42] = agar-dilution, Streptococcus pneumoniae Park I, read-out: MIC
[43] = agar-dilution, Streptococcus 9960, read-out: MIC
[44] = agar-dilution, Haemophilus influenzae C.L., Ampicillin-sensitive strain, read-out: MIC
[45] = broth-dilution microtiter, Pasteurella multocida 40G, read-out: MIC
[46] = broth-dilution microtiter, Pasteurella multocida 60A, Avian isolate, read-out: MIC
[47] = broth-dilution microtiter, Pasteurella multocida 68C, read-out: MIC

SMILES	MIC [1] [µg/mL]	MIC [2] [µg/mL]	MIC [3] [µg/mL]	MIC [5, 33] [µg/mL]	MIC ([10]; Streptococcus pyogenes, C203) [µg/mL]	MIC [13] [µg/mL]	MIC [14] [µg/mL]	MIC [15, 34] [µg/mL]	MIC [16, 35] [µg/mL]	MIC [17, 36] [µg/mL]	MIC [18, 37] [µg/mL]	MIC [19, 38] [µg/mL]	MIC [21] [µg/mL]	MIC [22] [µg/mL]	MIC [23] [µg/mL]	MIC [24] [µg/mL]	MIC [25] [µg/mL]	MIC [29] [µg/mL]	MIC [30, 39] [µg/mL]	MIC [4, 40] [µg/mL]	further results
CCC1OC(=O)CC(O)C(C)C(OC2OC(C)C(OC3CC(C)(O)C(O)C(C)O3)C(N(C)C)C2O)C(CCNCc2ccccc2)CC(C)C(=O)C=CC(C)=CC1C (centres unmarked) [Compound 25, 20-N-Benzylamino-20-deoxy-20-dihydro-DMOT]	> 128	> 128	> 128	4 (≈ 4.9 µM)	2 (≈ 2.45 µM)	4 (≈ 4.9 µM)	8 (≈ 9.79 µM)	4 (≈ 4.9 µM)	> 50	> 50	1.56 (≈ 1.91 µM)	> 50	> 50	> 50	> 50	> 50	> 50	12.5 (≈ 15.3 µM)	6.25 (≈ 7.65 µM)		MIC ([4]; Klebsiella pneumoniae, X26): 64 µg/mL (≈ 78.3 µM); MIC ([6]; agar-dilution, Staphylococcus aureus X1.1, read-out: MIC): 4 µg/mL (≈ 4.9 µM); MIC [7]: 8 µg/mL (≈ 9.79 µM); MIC ([8]; Streptococcus pneumoniae): 1 µg/mL (≈ 1.22 µM); MIC [9]; 9960: 8 µg/mL (≈ 9.79 µM); MIC ([11]; Haemophilus influenzae): 64 µg/mL (≈ 78.3 µM); MIC ([12]; agar-dilution, Staphylococcus aureus X400, Methicillin-resistant strain, read-out: MIC): 4 µg/mL (≈ 4.9 µM); MIC [20]: 50 µg/mL (≈ 61.2 µM); MIC ([26]; Pasteurella multocida, 40G): 50 µg/mL (≈ 61.2 µM); MIC ([27]; Pasteurella multocida, 60A): 50 µg/mL (≈ 61.2 µM); MIC ([28]; Pasteurella multocida, 68C): 50 µg/mL (≈ 61.2 µM); ED50 ([31]; C203, po, read-out: ED50 Oral): > 100 mg/kg; ED50 ([31]; C203, sc, read-out: ED50 Subcutaneous): > 25 mg/kg
CCC1OC(=O)CC(O)C(C)C(OC2OC(C)C(OC3CC(C)(O)C(O)C(C)O3)C(N(C)C)C2O)C(CCN2C(=O)c3ccccc3C2=O)CC(C)C(=O)C=CC(C)=CC1C (centres unmarked) [Compound 26, 20-N-Phthalimido-20-deoxy-20-dihydro-DMOT]	> 128	> 128	> 128		64 (≈ 74.7 µM)	32 (≈ 37.3 µM)	64 (≈ 74.7 µM)	64 (≈ 74.7 µM)	50 (≈ 58.3 µM)	50 (≈ 58.3 µM)	12.5 (≈ 14.6 µM)	50 (≈ 58.3 µM)	> 50	> 50	> 50	> 50	> 50	> 50	> 50	> 128	MIC ([5]; Staphylococcus aureus, V41): 32 µg/mL (≈ 37.3 µM); MIC ([6]; Staphylococcus aureus, X1.1): 64 µg/mL (≈ 74.7 µM); MIC [7, 41]: 128 µg/mL (≈ 149 µM); MIC [8, 42]: 8 µg/mL (≈ 9.33 µM); MIC [9, 43]: > 128 µg/mL; MIC [32]: > 128 µg/mL; MIC [11, 44]: > 128 µg/mL; MIC ([12]; Staphylococcus aureus, X400): 64 µg/mL (≈ 74.7 µM); MIC [26, 45]: > 50 µg/mL; MIC [27, 46]: > 50 µg/mL; MIC [28, 47]: > 50 µg/mL
CCC1OC(=O)CC(O)C(C)C(OC2OC(C)C(OC3CC(C)(O)C(O)C(C)O3)C(N(C)C)C2O)C(CCN2C(=O)c3ccccc3C2=O)CC(C)C(=O)C=CC(C)=CC1CN1C(=O)c2ccccc2C1=O (centres unmarked) [Compound 38, 20,23-Di-N-phthalimido-20,23-dideoxy-20-dihydro-DMT]	> 128	> 128	> 128	16 (≈ 16 µM)		16 (≈ 16 µM)	32 (≈ 31.9 µM)						> 50	> 50	> 50	> 50	> 50	25 (≈ 24.9 µM)		> 128	MIC ([6]; Staphylococcus aureus, X1.1): 64 µg/mL (≈ 63.9 µM); MIC [7, 41]: > 128 µg/mL; MIC [8, 42]: 16 µg/mL (≈ 16 µM); MIC [9, 43]: > 128 µg/mL; MIC ([10]; agar-dilution, Streptococcus pyogenes C203, read-out: MIC): > 128 µg/mL; MIC [32]: > 128 µg/mL; MIC [11, 44]: > 128 µg/mL; MIC ([12]; Staphylococcus aureus, X400): 64 µg/mL (≈ 63.9 µM); MIC ([15]; Staphylococcus epidermidis, EPI1): 32 µg/mL (≈ 31.9 µM); MIC [16]; 34159: 50 µg/mL (≈ 49.9 µM); MIC [17]; 41313: 50 µg/mL (≈ 49.9 µM); MIC [18]: 50 µg/mL (≈ 49.9 µM); MIC ([19]; Mycoplasma): 50 µg/mL (≈ 49.9 µM); MIC [26, 45]: > 50 µg/mL; MIC [27, 46]: > 50 µg/mL; MIC [28, 47]: > 50 µg/mL; MIC ([30]; Streptococcus, SP.80): 50 µg/mL (≈ 49.9 µM)
